Measurements as given in patent publication US12365655B2, “Compounds” (CTXT PTY LTD, priority 2018, dated 2025).

Tests used:
[1] = test system: acetylation of the histone H3K23 marker in U2OS cells; assay: Histone H3 Lysine 23 Acetylation Biomarker Assay; format: cell-based; conditions: Homo sapiens, 24 hours incubation, read-out: IC50, inhibition of histone H3K23 acetylation
Description: Compounds were tested for their ability to inhibit acetylation of the histone H3K23 marker in the following assay:
The cell line U2OS was seeded at a density of 9,000 cells per well in 96 well optical quality tissue culture plates in RPMI medium and 10% foetal bovine serum, and allowed to adhere for 24 hours under standard culture conditions (37 degree Celsius, 5% CO2). At the end of this period the medium was aspirated. […] After incubation for 24 hours, the cells were fixed with 3.7% formaldehyde in PBS for 20 minutes at room temperature, washed (5×5 minutes) with phosphate buffer saline containing 0.1% Tween 20 and blocked with Odyssey blocking buffer (LI-COR, Lincoln, Nebr.) containing 0.1% TritonX100. Anti-H3K23ac specific antibody (Abcam ab177275) in Odyssey blocking buffer containing 0.1% Tween 20 was added and incubated for 16 hours at 4 degree Celsius. After washing (as above), a secondary antibody labelled with Alexa647 dye (LifeTechnologies) and Hoechst 33342 (1 μg/mL, SigmaAldrich) were added for 1 hour incubation. Plates were washed as previously and read on a PerkinElmer Phenix high content imaging platform. Using a Columbus image analysis pipeline, individual nuclei were located by Hoechst 33342 stain and the acetylation level was calculated from the Alexa647-related intensity in the same area.

QKF-KAT6B = biological target: T1, QKF-KAT6B (Homo sapiens, UniProt Q8WYB5); assay: Acetyltransferase biochemical assay (AlphaScreen), KAT6B; conditions: 8 nM KAT6B, 1 μM AcCoA, 100 nM histone H3.1
T1 construct: purchased SignalChem K315-381BG
T1 sequence (Q8WYB5 whole entry): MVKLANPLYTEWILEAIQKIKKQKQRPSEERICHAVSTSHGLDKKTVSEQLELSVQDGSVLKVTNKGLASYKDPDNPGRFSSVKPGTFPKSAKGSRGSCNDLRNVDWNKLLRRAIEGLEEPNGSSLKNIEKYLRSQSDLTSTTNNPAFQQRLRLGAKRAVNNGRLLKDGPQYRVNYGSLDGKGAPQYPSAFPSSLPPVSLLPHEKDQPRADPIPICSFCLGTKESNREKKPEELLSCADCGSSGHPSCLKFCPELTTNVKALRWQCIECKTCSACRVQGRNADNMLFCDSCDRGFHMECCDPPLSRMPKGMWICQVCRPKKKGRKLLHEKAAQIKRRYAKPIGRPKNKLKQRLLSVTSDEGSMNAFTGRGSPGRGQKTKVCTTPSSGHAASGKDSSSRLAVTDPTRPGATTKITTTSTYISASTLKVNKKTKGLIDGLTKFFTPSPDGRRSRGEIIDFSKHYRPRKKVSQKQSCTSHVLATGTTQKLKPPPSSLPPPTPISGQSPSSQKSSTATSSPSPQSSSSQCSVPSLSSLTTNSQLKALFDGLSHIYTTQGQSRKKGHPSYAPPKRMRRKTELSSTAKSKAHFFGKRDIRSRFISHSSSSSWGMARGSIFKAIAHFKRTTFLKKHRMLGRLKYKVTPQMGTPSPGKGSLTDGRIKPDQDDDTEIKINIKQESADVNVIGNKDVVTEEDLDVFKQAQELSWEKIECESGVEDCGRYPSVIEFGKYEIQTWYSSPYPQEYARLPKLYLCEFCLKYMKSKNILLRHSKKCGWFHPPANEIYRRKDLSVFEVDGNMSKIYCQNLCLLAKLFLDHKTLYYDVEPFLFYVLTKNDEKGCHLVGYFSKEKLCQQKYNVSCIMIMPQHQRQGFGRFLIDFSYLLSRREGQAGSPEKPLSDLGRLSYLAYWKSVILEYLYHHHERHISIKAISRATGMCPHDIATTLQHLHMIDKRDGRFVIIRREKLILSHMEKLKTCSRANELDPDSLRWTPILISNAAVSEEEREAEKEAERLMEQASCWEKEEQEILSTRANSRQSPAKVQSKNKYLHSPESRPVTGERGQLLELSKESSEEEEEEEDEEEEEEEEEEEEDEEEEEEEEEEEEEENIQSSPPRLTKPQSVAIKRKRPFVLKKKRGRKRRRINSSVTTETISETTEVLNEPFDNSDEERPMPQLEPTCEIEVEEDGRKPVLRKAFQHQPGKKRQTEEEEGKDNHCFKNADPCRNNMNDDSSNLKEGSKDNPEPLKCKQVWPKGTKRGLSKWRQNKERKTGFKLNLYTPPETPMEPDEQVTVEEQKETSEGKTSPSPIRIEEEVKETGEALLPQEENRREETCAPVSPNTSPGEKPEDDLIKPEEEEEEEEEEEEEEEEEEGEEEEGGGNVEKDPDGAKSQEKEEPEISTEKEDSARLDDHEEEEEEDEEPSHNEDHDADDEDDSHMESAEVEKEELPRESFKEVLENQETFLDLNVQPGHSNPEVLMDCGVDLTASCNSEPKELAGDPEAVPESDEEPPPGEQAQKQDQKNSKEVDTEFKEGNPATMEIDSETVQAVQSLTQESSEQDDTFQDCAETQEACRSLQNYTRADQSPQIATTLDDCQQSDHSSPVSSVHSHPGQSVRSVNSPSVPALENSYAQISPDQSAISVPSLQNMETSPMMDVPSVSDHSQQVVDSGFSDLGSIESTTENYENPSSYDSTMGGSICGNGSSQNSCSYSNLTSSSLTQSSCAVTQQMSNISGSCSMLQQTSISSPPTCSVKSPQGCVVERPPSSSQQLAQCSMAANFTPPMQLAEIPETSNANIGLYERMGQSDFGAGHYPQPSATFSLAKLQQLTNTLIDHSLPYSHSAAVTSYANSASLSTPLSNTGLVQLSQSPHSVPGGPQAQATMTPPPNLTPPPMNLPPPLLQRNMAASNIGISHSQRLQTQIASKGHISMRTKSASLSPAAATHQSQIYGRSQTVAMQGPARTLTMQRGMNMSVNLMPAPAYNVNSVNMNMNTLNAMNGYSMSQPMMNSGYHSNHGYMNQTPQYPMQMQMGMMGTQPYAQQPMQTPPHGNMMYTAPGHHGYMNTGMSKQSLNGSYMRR
From the text: KAT6B was obtained from SignalChem, catalog ID: K315-381BG

HBO-KAT7 = HBO-KAT7 (Homo sapiens, UniProt O95251); assay: Acetyltransferase biochemical assay (AlphaScreen), KAT7
Chain of HBO-KAT7 (O95251 with tags, fused parts or gaps): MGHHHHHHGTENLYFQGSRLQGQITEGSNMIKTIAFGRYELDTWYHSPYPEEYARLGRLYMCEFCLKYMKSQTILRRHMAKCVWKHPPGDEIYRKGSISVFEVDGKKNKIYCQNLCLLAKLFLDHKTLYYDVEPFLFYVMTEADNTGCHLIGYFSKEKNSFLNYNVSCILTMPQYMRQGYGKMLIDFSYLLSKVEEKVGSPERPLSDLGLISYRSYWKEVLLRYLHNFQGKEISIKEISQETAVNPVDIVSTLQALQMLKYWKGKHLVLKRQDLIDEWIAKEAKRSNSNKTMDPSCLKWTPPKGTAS

[2] = test system: histone H2A.Z Lysine 7 acetylation marker in U2OS cells; assay: H2A.Z Lysine 7 Acetylation Biomarker Assay; format: cell-based; conditions: Homo sapiens, serum free medium, 24 hours incubation, read-out: IC50, inhibition of histone H2A.Z Lysine 7 acetylation
Description: Compounds were tested for their ability to inhibit the histone H2A.Z Lysine 7 acetylation marker in the following assay:
The cell line U2OS was seeded at a density of 3,000 cells per well in 384-well optical quality tissue culture plates in RPMI medium supplemented with 10% foetal bovine serum and 10 mM Hepes. The cells were allowed to adhere for 24 hours under standard culture conditions (37 degree Celsius, 5% CO2). At the end of this period the cells were washed with serum free medium. […] 2018, at 30 μM concentration. After incubation for 24 hours, the cells were fixed with 4% formaldehyde in PBS for 15 minutes at room temperature, washed with phosphate buffer saline and blocked with blocking buffer containing 0.2% TritonX100 and 2% BSA. Anti-H2A.ZK7ac specific antibody (Abcam) in blocking buffer was added and incubated overnight at 4 degree Celsius. After washing, a secondary antibody labelled with AlexaFluor 488 dye (ThermoFisher) and Hoechst 33342 (1 μg/mL, Life Technologies) were added for 2 hours incubation at room temperature. Plates were washed and read on a PerkinElmer Opera HCS high content imaging platform. Using a Columbus image analysis pipeline, individual nuclei were located by Hoechst 33342 stain and the acetylation level was calculated from the AlexaFluor 488-related intensity in the same area.

[3] = test system: acetylation of the histone H3 Lysine 14 marker in U2OS cells; assay: Histone H3 Lysine 14 Acetylation Biomarker Assay; format: cell-based; conditions: Homo sapiens, serum free medium, 24 hours incubation, read-out: IC50, inhibition of histone H3 Lysine 14 acetylation
Description: Compounds were tested for their ability to inhibit acetylation of the histone H3 Lysine 14 marker in the following assay:
The cell line U2OS was seeded at a density of 3,000 cells per well in 384-well optical quality tissue culture plates in RPMI medium supplemented with 10% foetal bovine serum and 10 mM Hepes. The cells were allowed to adhere for 24 hours under standard culture conditions (37 degree Celsius, 5% CO2). At the end of this period the cells were washed with serum free medium. […] After incubation for 24 hours, the cells were fixed with 4% formaldehyde in PBS for 15 minutes at room temperature, washed with phosphate buffer saline and blocked with blocking buffer containing 0.2% TritonX100 and 2% BSA. Anti-H3K14ac specific antibody (Cell Signalling Technologies) in blocking buffer was added and incubated overnight at 4 degree Celsius. After washing, a secondary antibody labelled with AlexaFluor 488 dye (ThermoFisher) and Hoechst 33342 (1 μg/mL, Life Technologies) were added for 2 hours incubation at room temperature. Plates were washed and read on a PerkinElmer Opera HCS high content imaging platform. Using a Columbus image analysis pipeline, individual nuclei were located by Hoechst 33342 stain and the acetylation level was calculated from the AlexaFluor 488-related intensity in the same area.

MOZ-KAT6A = MOZ-KAT6A (Homo sapiens, UniProt Q92794, A567V); assay: Acetyltransferase biochemical assay (AlphaScreen), KAT6A
Chain of MOZ-KAT6A (Q92794 with tags, fused parts or gaps A567V): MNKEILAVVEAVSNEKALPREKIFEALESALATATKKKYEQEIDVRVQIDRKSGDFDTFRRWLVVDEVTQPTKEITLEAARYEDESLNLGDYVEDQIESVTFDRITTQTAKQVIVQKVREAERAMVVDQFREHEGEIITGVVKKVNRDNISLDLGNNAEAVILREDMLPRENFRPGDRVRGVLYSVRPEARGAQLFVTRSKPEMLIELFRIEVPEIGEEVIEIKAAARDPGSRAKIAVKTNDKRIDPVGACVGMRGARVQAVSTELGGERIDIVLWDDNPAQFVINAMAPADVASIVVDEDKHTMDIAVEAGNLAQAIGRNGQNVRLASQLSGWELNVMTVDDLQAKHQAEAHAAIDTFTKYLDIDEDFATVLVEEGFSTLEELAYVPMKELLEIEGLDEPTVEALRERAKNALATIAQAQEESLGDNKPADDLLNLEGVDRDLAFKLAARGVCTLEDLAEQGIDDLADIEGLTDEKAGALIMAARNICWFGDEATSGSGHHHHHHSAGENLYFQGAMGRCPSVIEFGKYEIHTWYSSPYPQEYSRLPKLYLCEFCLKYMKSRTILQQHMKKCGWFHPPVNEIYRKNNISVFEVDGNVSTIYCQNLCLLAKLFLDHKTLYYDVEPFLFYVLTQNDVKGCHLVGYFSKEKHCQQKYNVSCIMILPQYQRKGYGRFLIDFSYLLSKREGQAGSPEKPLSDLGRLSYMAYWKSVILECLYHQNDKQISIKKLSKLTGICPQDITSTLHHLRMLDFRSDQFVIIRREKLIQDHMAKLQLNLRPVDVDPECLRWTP

TIP60-KAT5 = TIP60-KAT5 (Homo sapiens, UniProt Q92993); assay: Acetyltransferase biochemical assay (AlphaScreen), KAT5
Chain of TIP60-KAT5 (Q92993 with tags, fused parts or gaps isoform Q92993-2): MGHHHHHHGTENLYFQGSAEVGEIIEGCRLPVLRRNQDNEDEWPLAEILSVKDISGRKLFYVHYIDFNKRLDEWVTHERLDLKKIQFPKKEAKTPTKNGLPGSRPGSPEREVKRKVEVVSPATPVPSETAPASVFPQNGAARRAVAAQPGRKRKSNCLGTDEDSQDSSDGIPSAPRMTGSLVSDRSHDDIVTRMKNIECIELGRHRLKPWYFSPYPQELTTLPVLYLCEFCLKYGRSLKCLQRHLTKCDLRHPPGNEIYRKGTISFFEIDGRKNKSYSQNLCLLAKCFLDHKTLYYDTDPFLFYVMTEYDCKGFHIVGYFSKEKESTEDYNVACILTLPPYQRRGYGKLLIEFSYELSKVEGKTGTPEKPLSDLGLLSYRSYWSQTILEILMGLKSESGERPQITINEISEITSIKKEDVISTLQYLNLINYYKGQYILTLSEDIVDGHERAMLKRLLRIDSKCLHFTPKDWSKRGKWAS

MOF-KAT8 = biological target: T2, MOF-KAT8 (Homo sapiens, UniProt Q9H7Z6); assay: biochemical
T2 sequence (Q9H7Z6 with tags, fused parts or gaps): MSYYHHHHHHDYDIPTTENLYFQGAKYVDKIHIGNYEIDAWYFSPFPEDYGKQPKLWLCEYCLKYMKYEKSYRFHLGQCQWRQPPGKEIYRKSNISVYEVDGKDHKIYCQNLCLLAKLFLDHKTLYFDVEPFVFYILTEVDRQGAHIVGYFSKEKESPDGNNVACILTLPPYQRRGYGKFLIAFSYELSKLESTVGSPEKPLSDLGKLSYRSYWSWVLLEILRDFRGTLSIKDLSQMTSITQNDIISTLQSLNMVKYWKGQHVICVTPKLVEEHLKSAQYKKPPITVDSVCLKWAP

SMILES	IC50 [1] [nM]	IC50 (QKF-KAT6B) [nM]	IC50 (HBO-KAT7) [nM]	IC50 [2] [nM]	IC50 [3] [nM]	IC50 (MOZ-KAT6A) [nM]	IC50 (TIP60-KAT5) [nM]	IC50 (MOF-KAT8) [nM]
COc1cccc(OC)c1S(=O)(=O)Nc1noc2cc(-c3ccccn3)cc(OC)c12 [Example 146, 2,6-Dimethoxy-N-(4-methoxy-6-(pyridin-2-yl)benzo[d]isoxazol-3-yl)benzenesulfonamide]	45	291	511	15100	2300	153	22000	–
CCOCc1cc(OC)c2c(NS(=O)(=O)c3c(OC)cccc3OC)noc2c1 [Example 172]	14	42	426	29200	1450	37	9070	–
COCc1cc(OC)c2c(NS(=O)(=O)c3c(OC)ccc(Cl)c3OC)noc2c1 [Example 175, 3-Chloro-2,6-dimethoxy-N-(4-methoxy-6-(methoxymethyl)benzo[d]isoxazol-3-yl)benzenesulfonamide]	–	821	5950	–	–	441	43200	–
COc1cccc(OC)c1S(=O)(=O)Nc1noc2cc(-c3ncco3)ccc12 [Example 147, 2,6-Dimethoxy-N-(6-(oxazol-2-yl)benzo[d]isoxazol-3-yl)benzenesulfonamide]	> 10000	> 125000	> 125000	> 40000	> 40000	93600	> 125000	–
CCc1ccc(OC)c(S(=O)(=O)Nc2noc3cccc(OC)c23)c1 [Example 116, 5-Ethyl-2-methoxy-N-(4-methoxybenzo[d]isoxazol-3-yl)benzenesulfonamide]	3460	1620	1440	–	–	560	10500	–
COc1ccc(-c2ccccc2)c(OC)c1S(=O)(=O)Nc1noc2cccc(OC)c12 [Example 96, 2,4-Dimethoxy-N-(4-methoxybenzo[d]isoxazol-3-yl)-[1,1-biphenyl]-3-sulfonamide]	> 10000	3390	4270	–	–	1200	28600	53800
COc1cccc(OC)c1S(=O)(=O)Nc1noc2cc(OC(F)F)cc(OC)c12 [Example 242]	672	–	1780	–	–	3230	27300	–
COc1cccc(OC)c1S(=O)(=O)Nc1noc2c(-c3cnn(C)c3)ccc(OC)c12 [Example 143, 2,6-Dimethoxy-N-(4-methoxy-7-(1-methyl-1H-pyrazol-4-yl)benzo[d]isoxazol-3-yl)benzenesulfonamide]	–	50700	7880	–	–	32400	> 125000	–
COc1cccc(OC)c1S(=O)(=O)Nc1noc2cc(-c3ncco3)c(C)cc12 [Example 102, 2,6-Dimethoxy-N-(5-methyl-6-(oxazol-2-yl)benzo[d]isoxazol-3-yl)benzenesulfonamide]	–	282	568	> 40000	3690	143	9330	11500
CCc1ccc(OC)c(S(=O)(=O)Nc2noc3c(-c4cnn(C)c4)cccc23)c1 [Example 191, 5-Ethyl-2-methoxy-N-(7-(1-methyl-1H-pyrazol-4-yl)benzo[d]isoxazol-3-yl)benzenesulfonamide]	> 10000	–	1580	> 40000	17800	12600	68700	–

Stronger by IC50 (HBO-KAT7), values ahead:

IC50 [1] [nM]	IC50 (QKF-KAT6B) [nM]	IC50 (HBO-KAT7) [nM]	IC50 [2] [nM]	IC50 [3] [nM]	IC50 (MOZ-KAT6A) [nM]	IC50 (TIP60-KAT5) [nM]	SMILES	IC50 (MOF-KAT8) [nM]
128	57	286	18800	2950	261	11500	COc1cccc(OC)c1S(=O)(=O)Nc1noc2cc(-c3ncco3)cc(OC)c12 [Example 144, 2,6-Dimethoxy-N-(4-methoxy-6-(oxazol-2-yl)benzo[d]isoxazol-3-yl)benzenesulfonamide]	–
98	–	259	> 40000	3380	127	21000	COCc1cc2onc(NS(=O)(=O)c3c(OC)cccc3OC)c2c(OC)c1Cl [Example 145]	–
–	1450	257	–	–	104	4610	CCc1ccc(OC)c(S(=O)(=O)Nc2noc3ccc(C4CC4)c(Cl)c23)c1 [Example 207]	–
> 10000	–	248	> 40000	26100	2120	672	COc1ccccc1S(=O)(=O)Nc1noc2cccc(Cl)c12 [Example 155]	–
685	121	138	7610	1070	30	5670	COc1ccccc1-c1cc(OC)c2c(NS(=O)(=O)c3c(OC)cccc3OC)noc2c1 [Example 176, 2,6-Dimethoxy-N-(4-methoxy-6-(2-methoxyphenyl)benzo[d]isoxazol-3-yl)benzenesulfonamide]	–
182	37	79	8020	874	9	2180	COCc1cc(OC)c2c(NS(=O)(=O)c3c(OC)cc(-c4ccccc4)cc3OC)noc2c1 [Example 91, 3,5-Dimethoxy-N-(4-methoxy-6-(methoxymethyl)benzo [d]isoxazol-3-yl)-[1,1-biphenyl]-4-sulfonamide]	–
13	53	60	4620	703	6	1390	COc1cccc(OC)c1S(=O)(=O)Nc1noc2cc(-c3cccc(O)c3)cc(OC)c12 [Example 92]	–
3710	–	50	13200	3480	423	12200	COc1cncc(-c2cc(OC)c3c(NS(=O)(=O)c4c(OC)cccc4OC)noc3c2)c1 [Example 250, 2,6-Dimethoxy-N-(4-methoxy-6-(5-methoxypyridin-3-yl)benzo[d]isoxazol-3-yl)benzenesulfonamide]	–
1490	92	21	1090	135	127	7080	COc1cccc(-c2cc(OC)c3c(NS(=O)(=O)c4c(OC)cccc4OC)noc3c2)c1 [Example 177, 2,6-Dimethoxy-N-(4-methoxy-6-(3-methoxyphenyl)benzo[d]isoxazol-3-yl)benzenesulfonamide]	–
